Results published in patent publication US20140120191A1, “METHOD OF TREATING A DISORDER ASSOCIATED WITH S[…]” (BEECH TREE LABS INC., priority 2011, published 2014).
“Also recorded” adds a separate entry of the source.

Test system: R. equi
Assay: R. equi intrabronchial challenge model of pneumonia in foals
Type: in vivo
Details: SLO 2 IU subcutaneous twice a day without antibiotics
Procedure: Animals: 24 foals (average age 4 +/− days old) were used in this challenge model and two additional foals served as uninfected controls. The foals were raised on a Veterinary Science farm and kept with their mares throughout the study. Foals were evaluated shortly after birth for inclusion in the study using the following criteria; normality in physical examination, absence of lung sounds on auscultation, normal temperature, and unremarkable ultrasound examination of the lungs. None of the foals received anti-rhodococcal plasma or other treatments prior to enrollment in the study. The foals were moved with their dams to individual box stalls in a BSL2 isolation facility. Baseline values for heart rate, respiratory rate, temperature, fibrinogen concentration, and leukocyte count were obtained. […]
After the foals were sedated, a flexible fiberoptic endoscope was used to deliver the bacteria suspended in 35 ml of sterile PBS into both main bronchi. […] The foals were returned to their stalls and dams and monitored daily for changes in rectal temperature, respiration, and pulse as determined by physical exam and auscultation of the lungs. […] Clinical signs recorded included lung auscultations, overall attitude, appetite, resting respiratory rate and pulse. […] Daily observation of attitude, appetite, lung auscultation were scored (0-4) and combined to generate an overall daily score for each foal. […]

streptolysin O [SLO alone]
treatment effect / clinical course: deteriorated rapidly and required early euthanasia; also recorded: no treatment effect
